The values below come from patent publication US11744898B2, “Multi-arm polymer conjugates of TLR agonist compounds and related immunotherapeutic treatment methods” (Nektar Therapeutics, priority 2017, dated 2023).

In data set [1] the test system is CT26 tumor cells. Nature of the data set: Murine CT-26 colon tumor model, two flanks; 800 μg 4-arm-PEG20k-CM-N-R848 intra-/peritumorally day 0, RSLAIL-2 0.8 mg/kg i.v. days 0, 9, 18. The format is in vivo, Balb/c mice.
Data set [2] can be described thus: Plasma and tumor concentrations following single 10 μg (R848 equivalents) intratumoral administration to EMT6 tumor bearing mice. It is filed as in vivo, Balb/c mice. Further details: key: +<10; 10≤++<100; 100≤+++<1,000; 1,000≤++++; BLQ is Below the Limit of Quantitation. As to the method: (§1) Studies were conducted to evaluate the single dose pharmacokinetics of R848 and Compound 6 in plasma and tumor tissue.
(§2) Plasma and tumor tissues were collected at pre-determined time points for analysis of R848 and Compound 6 using a qualified LC-MS/MS method.

Assay in data set [3]: as above
The format is in vivo, Balb/c mice. Set-up: unit not given here. As for the experimental part:
as §1, §2

For data set [4], the system named is CT26 tumor cells. Nature of the data set: Effect of treatment in vivo on intratumoral immune cell types by flow cytometry, CT26 tumors. Set-up: species or system Balb/c mice. As to the method:
The other (contralateral) tumor was not dosed with R848.
Immune cell subtypes were measured by flow cytometry.
In general terms: A flow cytometer gives signals particle by particle.

In data set [5] the test system is proinflammatory cytokines IFNα, IFNγ, TNFα, IL-6 and IL-12. Kind of data set: Plasma cytokine induction after Compound 6 or resiquimod with staggered RSLAIL-2 in CT26 model. It is filed as in vivo, Balb/c mice. As for the experimental part:
The concentration of proinflammatory cytokines IFNα, IFNγ, TNFα, IL-6 and IL-12 was determined in plasma by multiplex protein measurement assay at indicated time points post dose.

Data set [6] can be described thus: Plasma and tumor concentrations following single 10 μg (R848 equivalents) intratumoral administration to CT26 tumor bearing mice. It is filed as in vivo, Balb/c mice. Further details: unit not given here. As for the experimental part: as §1, §2
Assay in data set [7]: as above
Set-up: key: +<10; 10≤++<100; 100≤+++<1,000; 1,000≤++++; BLQ is Below the Limit of Quantitation. The format is in vivo, Balb/c mice. As for the experimental part:
as §1, §2

For data set [8], the system named is STAT5 phosphorylation. Nature of the data set: STAT5 phosphorylation in lymphocytes by flow cytometry after administration in mice. It is filed as in vivo. From the text:
Conventional approaches, such as those involving radiolabeling a compound, administering it in vivo, and determining its clearance, can be used to determine whether a compound proposed to be a long-acting IL-2Rβ biased agonist is “long-acting”. For the purposes herein, the long acting nature of an IL-2Rβ biased agonist is typically determined using flow cytometry to measure STAT5 phosphorylation in lymphocytes at various time points after administration of the agonist to be evaluated in mice. As a reference, the signal is lost by around 24 hours with IL-2, but is sustained for a period greater than that for a long-acting IL-2Rβ-biased agonist.

The test system of data set [9] is subcutaneous B16F10 mouse melanoma tumors. Nature of the data set: Immune cells in tumor microenvironment by flow cytometry, B16F10 melanoma model. The format is in vivo, mice. Particulars: day 7; single dose of RSLAIL-2 or 5 doses of aldesleukin.
The mark [10] stands for this setting: plasma, 10 μg intra/peritumoral.

In the case of 4-arm-PEG20k-CM-N—R848 [Compound 1], the “Survival Proportions” value in [1] (day 0 after treatment start) is given as 100%; in data set [1] (day 12 after treatment start) it was 80%; in data set [1] (day 16 after treatment start) it was 70%; in data set [1] (day 19 after treatment start), 40%; in [1] (day 21 after treatment start), 30%; in data set [1] (day 47 after treatment start (end of experiment)), 30%. Also, the “animals with a complete response (both treated and untreated side tumors eliminated)” value in [1] (end of experiment, day 47) is 20%. Also, in [1] (end of experiment, day 47), the “animals with a partial response (one of the two tumors eradicated)” value was found to be 10%.
Take `CCOCc1nc2c(N)nc3ccccc3c2n1CC(C)(C)O` [Compound R848, 1-(4-Amino-2-(ethoxymethyl)-1H-imidazo[4,5-c]quinolin-1-yl)-2-methylpropan-2-ol]: the R848 plasma concentration entry in data set [2] (24.00 hr post-dose) is given as “BLQ”; in [2] (72.00 hr post-dose) it was “BLQ”; in data set [2] (96.00 hr post-dose), “BLQ”; in data set [2] (120.00 hr post-dose), “BLQ”; in [2] (144.00 hr post-dose) it was “BLQ”; in data set [3] (0.25 hr post-dose) it was “+++ (100≤+++<1,000)”. Further, the R848 plasma concentration entry in data set [3] (2.00 hr post-dose) is given as “+ (+<10)”; in data set [3] (6.00 hr post-dose) it was “+ (+<10)”; in data set [6] (0.25 hr post-dose), “++ (10≤++<100)”; in [6] (2.00 hr post-dose), “+ (+<10)”; in [6] (6.00 hr post-dose), “+ (+<10)”; in data set [6] (24.00 hr post-dose), “+ (+<10)”. The R848 plasma concentration entry in data set [7] (72.00 hr post-dose), in [7] (96.00 hr post-dose), in [7] (120.00 hr post-dose) and in data set [7] (144.00 hr post-dose) was “BLQ” each time. The R848 tumor concentration entry is listed as “++ (1,000≤++<10,000)” in data set [3] (0.25 hr post-dose); “+ (+<1,000)” in [3] (2.00 hr post-dose); “+ (+<1,000)” in [3] (6.00 hr post-dose); “+ (+<1,000)” in data set [3] (24.00 hr post-dose); “+ (+<1,000)” in data set [3] (72.00 hr post-dose); “+ (+<1,000)” in data set [3] (96.00 hr post-dose). The R848 tumor concentration result in [3] (120.00 hr post-dose) is recorded as “+ (+<1,000)”; in [3] (144.00 hr post-dose), “+ (+<1,000)”; in data set [6] (0.25 hr post-dose), “++ (1,000≤++<10,000)”; in data set [6] (2.00 hr post-dose), “+ (+<1,000)”; in [6] (6.00 hr post-dose), “+ (+<1,000)”; in [6] (24.00 hr post-dose) it was “+ (+<1,000)”. Also, the R848 tumor concentration result in [6] (72.00 hr post-dose), in data set [6] (96.00 hr post-dose), in data set [6] (120.00 hr post-dose) and in data set [6] (144.00 hr post-dose) was “+ (+<1,000)” in each case. Besides, the “CD8 T Cells (Percent of Vehicle)” value in data set [4] is 95%. The “CD11c+ CD8+ Dendritic Cells (Percent of Vehicle)” value in data set [4] is 135%. Besides, the “Macrophages (Percent of Vehicle)” value in [4] is 80%. Also, the “Monocytes (Percent of Vehicle)” value in data set [4] was 160%. Besides, the “Neutrophils (Percent of Vehicle)” value in data set [4] is recorded as 500%. The “T Regulatory Cells (Percent of Vehicle)” value in data set [4] turned out to be 20%. In addition, in data set [5] (10 μg single intra/peritumoral dose), the “pro-inflammatory cytokine induction in blood, in words” value is “robust pro-inflammatory cytokine induction in blood”. In addition, the “time of peak level of IFN-γ” value in data set [5] (setting [10]) was 6 h. Also, the “time of peak levels of IFNα, TNFα, IL-6 and IL-12” value in data set [5] (setting [10]) turned out to be 2 h.
With “aldesleukin: clinically available IL-2; recombinant IL-2 referred to as aldesleukin”, in data set [8], the “time by which STAT5 phosphorylation signal is lost” value is “around 24 hours”. In addition, the “ratio of CD8/Treg in the tumor” value in data set [9] amounted to 18.
